Data published in patent US8420052B2, “Imaging agents useful for identifying AD pathology” (Siemens Medical Solutions USA, Inc., priority 2008, dated 2013).

System: amyloid plaques and fibrils in human brain slices
Experiment: Human brain slice competition assay using autoradiography
Type: binding
Conditions: radiolabeled tracer approx. 20 uCi, 90 min rt, lower = more displacement; for _max low dose (percent dose remaining relative to control with no blocker): blocker 0.25 uM; for _max high dose (percent dose remaining relative to control with no blocker): blocker 2.5 uM
Experimental: Human Brain Slice Competition Assay Using Autoradiography
Briefly, 5 micron thick human brain slices from regions of the brain bearing high amyloid plaque and fibril burden were incubated with approximately 20 uCi of a radiolabeled tracer in 2.5%:2.5%:95% DMSO:EtOH:PBS in the presence of blocker (2.5 and 0.25 uM total concentration) or absence of blocker (control). The slices were incubated at rt for 90 min. The slices were then quickly washed in PBS, followed by 70% EtOH:PBS for 2 min, then 30% EtOH:PBS for 2 min and then quickly washed with PBS. The slices were dried for 30 min and then exposed on autoradiographic film for 20 min. The brain slices were then removed from the slide and the radioactivity counted in a gamma counter. The percent dose remaining, relative to a control with no blocker, at 0.25 uM is represented in the “_max low dose” column. The percent dose remaining, relative to a control with no blocker, at 2.5 uM is represented in the “_max high dose” column.

Compound	_max low dose (percent dose remaining relative to control with no blocker) [%]	_max high dose (percent dose remaining relative to control with no blocker) [%]
CNc1ccc(-c2nc3ccccc3s2)cc1 [BTA1, reference compound]	33.66	17.80
FCCOc1ccc2c(c1)[nH]c1ccccc12 [CB1]	74.86	30.34
FCCOCCOCCOc1ccc2c(c1)[nH]c1ccccc12 [CB3]	69.78	29.53
CNc1ccc2c(c1)[nH]c1cc(OCCOCCOCCF)ccc12 [CB4]	54.17	16.96
Cn1c2ccccc2c2ccc(OCCOCCOCCF)cc21 [CB6]	111.02	113.69
CN(C)c1ccc2c(c1)[nH]c1cc(OCCOCCOCCF)ccc12 [CB7]	42.64	15.14
CNc1ccc2[nH]c3ccc(OCCOCCOCCF)cc3c2c1 [CB8]	95.89	108.49
O=CNc1ccc2c(c1)[nH]c1cc(OCCOCCOCCF)ccc12 [CB9]	93.92	80.06
O=CNc1ccc2c(c1)[nH]c1cc(OCCOCCOCCF)ccc12 [CB10]	69.29	21.60
O=CNc1ccc2c(c1)[nH]c1cc(OCCF)ccc12 [CB12]	59.97	12.29
COc1ccc2[nH]c3ccc(NCCF)cc3c2c1 [CB13]	108.14	110.57
CN(CCCCF)c1ccc2c(c1)[nH]c1cc(O)ccc12 [CB14]	114.19	49.02
CC(=O)n1c2ccccc2c2ccc(OCCOCCOCCF)cc21 [CB17]	91.06	62.03
O=C(c1ccccc1)n1c2ccccc2c2ccc(OCCOCCOCCF)cc21 [CB21]	104.81	94.00
O=c1cc(-c2ccccc2)c2ccc(O)c(O)c2o1 [Compound 73]	68.43	34.37
COc1ccc2cc(-c3ccn[nH]3)ccc2c1 [Compound W1]	70.48	35.38
CN(C)c1ccc(/C=C2/C(=O)Nc3ccccc32)cc1 [Compound W12]	105.11	45.98
Oc1cccc2[nH]c3ccccc3c12 [Compound W19]	100.46	89.32
Nc1ccc2c(c1)oc1ccccc12 [Compound W20]	95.11	43.52
O=C(/C=C/C=C/c1ccccc1)c1cccs1 [Compound W24]	55.16	23.51

Compound	_max low dose (percent dose remaining relative to control with no blocker) [%]	_max high dose (percent dose remaining relative to control with no blocker) [%]
COc1cc2c(cc1N)oc1ccccc12 [Compound W33]	82.52	36.72
CC(=O)Nc1ccc2sc3ccccc3c2c1 [Compound W34]	84.84	73.74
Nc1ccc2c(c1)[nH]c1cc(OCc3ccccc3)ccc12 [Compound W42]	49.95	17.60
Nc1ccc2[nH]c3ccc(OCc4ccccc4)cc3c2c1 [Compound W60]	105.87	115.14
COc1ccc2c(c1)[nH]c1c(C)nccc12 [Compound W65]	105.49	94.16
c1ccc2c(c1)[nH]c1cnccc12 [Compound W67]	101.83	94.93
c1ccc2c(c1)[nH]c1cc(OCCOCCOCCOc3ccc4c(c3)[nH]c3ccccc34)ccc12 [Compound W70]	88.20	89.53
CN(C)c1ccc(/C=C2\C(=O)Nc3ccc(F)cc32)cc1 [Compound W71]	104.61	88.00
Oc1cccc(-c2cc3ccccn3c2)c1 [Compound W73]	66.38	35.16
N#Cc1ccc(/C=C2\C(=O)Nc3ccc(F)cc32)cc1 [Compound W79]	92.77	96.90
c1ccc2c(c1)Cn1c-2nc2ccccc21 [Compound W81]	96.06	81.94
FCCOc1cccc(-c2cc3ccccn3c2)c1 [Compound W84]	97.22	40.32
O=c1sc2ccccc2n1/C=C/c1ccccc1 [Compound W88]	29.58	7.65
CC(=O)c1ccc2[nH]c(=O)sc2c1 [Compound W92]	112.87	88.58
FCCOCCOCCOc1ccc2c(c1)[nH]c1sc3ccccc3c12 [Compound W94]	103.76	40.74
N#CC1c2ccc(O)cc2N2C=CC=CC12 (stereo not drawn) [Compound W99]	87.14	76.06
NC(=O)c1ccc2cc(-c3cccc([N+](=O)[O-])c3)cn2c1 [Compound W100]	97.53	75.02
CN(CCOCCOCCF)c1ccc2c(c1)[nH]c1cc(O)ccc12 [Compound W101]	81.33	73.62
CN(C)c1ccc2c3ccc(OCCF)cc3n(CCF)c2c1 [Compound W102]	91.92	92.00
